Tested on: Klebsiella pneumoniae
Assay: Photochemical inactivation of K. pneumoniae in plasma or platelets in PAS with amotosalen and UVA LED illumination
Type: cell-based
Conditions: 150 μM amotosalen nominal, triplicate

Cc1oc2c(C)c3oc(=O)cc(C)c3cc2c1COCCN [S-59, 3-(2-aminoethoxymethyl)-2,5,9-trimethylfuro[3,2-g]chromen-7-one]
Log Inactivation (plasma, INTERCEPT plasma set, 6.4 J/cm^2, UVA LEDs 346-349 nm): 6.3 ± 0.3 log | Log Inactivation (plasma, INTERCEPT plasma set, 6.4 J/cm^2, UVA LEDs 346-349 nm, listed as amotosalen): 6.3±0.3 log | Log Inactivation (platelets/PAS, LV set, 3.9 J/cm^2, UVA LEDs 346-349 nm): 7.2 ± 0.2 log | Log Inactivation (platelets/PAS, LV set, 3.9 J/cm^2, UVA LEDs 346-349 nm, listed as amotosalen): 7.2±0.2 log

From patent publication US12558442B2, “Biological fluid treatment systems” (priority 2019, dated 2026)
